Reference: US20070190068A1, “uPAR-binding molecule-drug conjugates and uses thereof” (priority 2005, published 2007)

Tested on: MDA-231 GFP tumors
Assay: Human breast carcinoma MDA-MB-231 GFP xenograft in nude mice (tumor volume)
Type: in vivo, BALB/c (nu/nu) mice
Conditions: week 14
From the text: FIG. 5. Preliminary dose defining study. Effect of anti-human uPAR IgG (Mab 3936), doxorubicin, Mab 3936-Doxorubicin conjugate on xenograft human breast cancer tumor model in nude mice (MDA-231 GFP tumors). Tumor volume (mm^3) from week 8 to week 11 post tumor cell inoculation were compared. Bar graph from left to right: animals received control serum, doxorubicin via intravenous (DOX I.V.), doxorubicin via […] (DOX I.P.), Mab 3936 (3936) or Mab 3936-doxorubicin conjugate (3936+DOX) (2 mg/animal).
FIG. 6. Effect of anti-human uPAR IgG (Mab 3936), doxorubicin, Mab 3936-doxorubicin conjugate on xenograft human breast cancer tumor model in nude mice (MDA-231 GFP tumors). Tumor volume (mm^3) from week 5 to week 15 post tumor cell inoculation were compared. Bar graph from left to right: animals received control serum, doxorubicin via intravenous, Mab 3936, doxorubicin via […], and Mab 3936-doxorubicin conjugate.
FIG. 7. […]
For xenograft studies, 4 to 6 weeks old BALB/c (nu/nu) female mice were obtained from Charles River Inc. The mice weighed an average of 20 grams. […] The tumor mass was measured in two dimensions with calipers, twice a week.
Throughout the course of these studies, all control and experimental mice were monitored for any noticeable side effects. […]

Question: For COc1cccc2c1C(=O)c1c(O)c3c(c(O)c1C2=O)C[C@@](O)(C(=O)CO)C[C@@H]3O[C@H]1C[C@H](N)[C@H](O)[C@H](C)O1 [doxorubicin], which tumor volume is on record?
Answer: The tumor volume was 330 mm^3.
